Measured values taken from ChEMBL document CHEMBL1144444, “Predictive three-dimensional quantitative structure-activity relationship of cytochrome P450 1A2 inhibitors” (J Med Chem, 2005).

Target: T1, Cytochrome P450 1A2 (Homo sapiens, UniProt P05177)
T1 sequence (P05177 whole entry): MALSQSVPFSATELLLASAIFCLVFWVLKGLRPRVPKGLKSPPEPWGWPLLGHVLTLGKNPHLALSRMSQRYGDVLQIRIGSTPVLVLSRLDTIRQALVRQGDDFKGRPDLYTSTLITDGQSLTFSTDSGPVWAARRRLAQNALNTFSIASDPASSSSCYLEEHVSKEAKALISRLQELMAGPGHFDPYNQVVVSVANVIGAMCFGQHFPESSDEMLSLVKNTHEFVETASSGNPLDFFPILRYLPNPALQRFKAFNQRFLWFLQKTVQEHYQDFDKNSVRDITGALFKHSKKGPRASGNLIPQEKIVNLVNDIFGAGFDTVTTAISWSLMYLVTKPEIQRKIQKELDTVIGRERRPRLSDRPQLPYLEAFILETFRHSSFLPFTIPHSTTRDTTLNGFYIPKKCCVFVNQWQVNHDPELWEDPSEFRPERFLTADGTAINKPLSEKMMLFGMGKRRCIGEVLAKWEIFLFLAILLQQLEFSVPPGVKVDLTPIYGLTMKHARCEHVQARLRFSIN
Test: Inhibitory concentration against recombinant human cytochrome P450 1A2

[1] = human, recombinant human CYP1A2

| SMILES | IC50 [µM] | IC50 [1] [µM] |
| --- | --- | --- |
| Cc1ccc(CCN)cc1 | 14 |  |
| COc1ccc(C=O)cc1 | 270 |  |
| c1ccc2ccccc2c1 | 700 |  |
| Cc1cc2ccccc2cn1 | 21 |  |
| Clc1ccccc1-c1ccccc1 | 230 |  |
| Fc1ccc2ccccc2c1 | 49 |  |
| O=C1CCC(c2ccccc2)O1 (stereo unspecified) | 2300 |  |
| Cc1cc(C)c2ccccc2n1 | 2.4 |  |
| CCC1CCC(=O)O1 (stereo unspecified) | 9900 |  |
| Cc1ccc2cc(C)ccc2c1 | 52 |  |
| Cc1ccc2ccc(C)cc2c1 | 65 |  |
| Clc1cccc2ccccc12 | 50 |  |
| Cc1cnc2ccccc2c1 | 13 |  |
| Cc1ccc2ccccc2c1 | 120 |  |
| Clc1ccc(-c2ccccc2)cc1 | 49 |  |
| O=C1Cc2ccccc2O1 | 260 |  |
| Cc1ccc(C)c2ccccc12 | 3.6 |  |
| Cc1ccc2c(C)cccc2c1 | 25 |  |

| SMILES | IC50 [µM] | IC50 [1] [µM] |
| --- | --- | --- |
| c1ccc2c(c1)CCC2 | 550 |  |
| c1ccc2c(c1)CCO2 | 1200 |  |
| COC1=CC(=O)OC1 |  | > 40000 |
| CCc1ccc2ccccc2c1 | 19 |  |
| Cc1cc(C)oc(=O)c1 | 4500 |  |
| Cc1ccc2cccc(C)c2c1 | 7.5 |  |
| O=C1CCCCCO1 |  | > 40000 |
| Cc1cccc2ccccc12 | 110 |  |
| Cc1cccc2c(C)cccc12 | 42 |  |
| CN1C(=O)CCC1c1cccnc1 (single isomer, unassigned) [COTININE] | 5400 |  |
| Oc1cccc2ccccc12 [1-NAPHTHOL] | 3.2 |  |
| O=c1[nH]c2ccccc2o1 [BENZOXAZOLINONE] | 370 |  |
| Oc1ccc2ccccc2c1 [BETANAPHTHOL] | 17 |  |
| c1ccc(-c2ccccc2)cc1 [BIPHENYL] | 160 |  |
| CCCCc1ccccc1 [BUTYLBENZYL] | 3700 |  |
| CCCCC1CCCCC1 [BUTYLCYCLOHEXANE] | 55 |  |
| Cc1ccc2ccccc2n1 [QUINALDINE] | 40 |  |
| CN1CCC[C@@H]1c1cccnc1 [R-NICOTINE] | 4100 |  |
